Data from US20230233569A1 (Revolution Medicines, Inc., priority 2020, published 2023).
Read-outs that look alike come from different tables or passages of the source.

Legend:
[1] = test system: Capan-1 (K-Ras G12V); assay: CellTiter-Glo cell viability assay, 5-day treatment; assay type: cell-based; details: Homo sapiens, CAPAN-1, 120 h, 5-day treatment; read-out: Capan-1 Cell Viability assay data (K-Ras G12V, IC50)
Outline: (§1)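 Five-day compound treatment of plated cells; luminescent read after ~30 min at RT. Percent-of-DMSO data fit to a four-parameter logistic model.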

[2] = target: KRAS G12C (Homo sapiens, UniProt P01116+P62937, G12C); assay: Disruption of BRAF RBD interaction with Ras (FRET / MOA assay, with Cyclophilin A); assay type: biochemical
Outline: (§2)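 Here, compound titrations (ten points, factor 3, from 30 μM final) act on nucleotide-bound K-Ras and Cyclophilin A, and ternary complex formation disrupts the RAF RBD interaction.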

[3] = target: KRAS G12V (Homo sapiens, UniProt P01116+P62937, G12V); assay: as above; assay type: biochemical
Outline: as §2

[4] = target: KRAS G12S (Homo sapiens, UniProt P01116+P62937, G12S); assay: as above; assay type: biochemical
Outline: as §2

[5] = target: KRAS G12D (Homo sapiens, UniProt P01116+P62937, G12D); assay: as above; assay type: biochemical
Outline: as §2

[6] = target: KRAS G13D (Homo sapiens, UniProt P01116+P62937, G13D); assay: as above; assay type: biochemical
Outline: as §2

[7] = target: KRAS WT (Homo sapiens, UniProt P01116+P62937); assay: as above; assay type: biochemical
Outline: as §2

[8] = target: KRAS G13C (Homo sapiens, UniProt P01116+P62937, G13C); assay: as above; assay type: biochemical
Outline: as §2

[9] = target: NRAS G12C (Homo sapiens, UniProt P01111+P62937, G12C); assay: as above; assay type: biochemical
[10] = target: NRAS Q61K (Homo sapiens, UniProt P01111+P62937, Q61K); assay: as above; assay type: biochemical; details: NRAS Q61K; read-out: NRAS Q61K FRET data IC50
Outline: (§3)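 TR-FRET in 25 mM HEPES pH 7.3, 100 mM NaCl, 5 mM MgCl2, 0.1% BSA: 25 μM Cyclophilin A, 12.5 nM His6-Ras-GMPPNP, 50 nM GST-BRAF RBD with compound (10-point 3-fold series from 30 μM), 3 h at 25° C. Anti-His Eu/anti-GST APC added, 1.5 h more; IC50 from decreased FRET ratio versus DMSO.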

[11] = target: NRAS WT (Homo sapiens, UniProt P01111+P62937); assay: as above; assay type: biochemical; details: NRAS WT; read-out: NRAS WT FRET data IC50
Outline: as §3

[12] = target: NRAS Q61R (Homo sapiens, UniProt P01111+P62937, Q61R); assay: as above; assay type: biochemical; details: NRAS Q61R; read-out: NRAS Q61R FRET data IC50
Outline: as §3

[13] = target: KRAS Q61H (Homo sapiens, UniProt P01116+P62937, Q61H); assay: as above; assay type: biochemical; details: KRAS Q61H; read-out: KRAS Q61H FRET data IC50
Outline: as §3

[14] = test system: NCI-H358 (K-Ras G12C); assay: CellTiter-Glo cell viability assay, 5-day treatment; assay type: cell-based; details: Homo sapiens, NCI-H358, 120 h, 5-day treatment; read-out: H358 Cell Viability assay data (K-Ras G12C, IC50)
Outline: as §1

[15] = read-out: KRAS G12C FRET data, IC50
[16] = KRAS G12V, read-out: KRAS G12V FRET data IC50
[17] = read-out: KRAS G12S FRET data, IC50
[18] = read-out: KRAS G12D FRET data, IC50
[19] = KRAS G13D, read-out: KRAS G13D FRET data IC50
[20] = KRAS WT, read-out: KRAS WT FRET data IC50
[21] = read-out: KRAS G13C FRET data, IC50
[22] = NRAS G12C, read-out: NRAS G12C FRET data IC50

Chain of KRAS G12D (P01116 1-169 isoform P01116-2 G12D limits assumed): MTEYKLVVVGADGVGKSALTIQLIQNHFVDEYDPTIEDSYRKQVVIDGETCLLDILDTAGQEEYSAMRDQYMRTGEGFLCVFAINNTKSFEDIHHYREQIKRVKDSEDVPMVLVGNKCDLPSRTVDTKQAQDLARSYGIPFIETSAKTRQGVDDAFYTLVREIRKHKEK
Chain of KRAS G12D (P62937 whole entry): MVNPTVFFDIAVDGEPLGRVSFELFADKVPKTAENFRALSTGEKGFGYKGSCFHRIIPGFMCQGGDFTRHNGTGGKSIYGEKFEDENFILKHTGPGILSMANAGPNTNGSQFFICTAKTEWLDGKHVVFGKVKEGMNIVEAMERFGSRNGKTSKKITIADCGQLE
Chain of NRAS Q61K (P01111 whole entry Q61K): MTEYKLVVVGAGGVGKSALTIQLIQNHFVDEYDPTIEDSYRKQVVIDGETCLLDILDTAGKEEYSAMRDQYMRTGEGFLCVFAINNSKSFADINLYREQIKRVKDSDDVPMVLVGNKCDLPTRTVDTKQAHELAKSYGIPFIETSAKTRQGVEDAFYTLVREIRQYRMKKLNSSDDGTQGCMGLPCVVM
Chain of NRAS Q61K (P62937 whole entry): as the sequence (P62937 whole entry) above
Chain of NRAS Q61R (P01111 whole entry Q61R): as the sequence (P01111 whole entry Q61K) above, with K61R counted along it
Chain of NRAS Q61R (P62937 whole entry): as the sequence (P62937 whole entry) above
Chain of KRAS Q61H (P01116 1-169 isoform P01116-2 Q61H limits assumed): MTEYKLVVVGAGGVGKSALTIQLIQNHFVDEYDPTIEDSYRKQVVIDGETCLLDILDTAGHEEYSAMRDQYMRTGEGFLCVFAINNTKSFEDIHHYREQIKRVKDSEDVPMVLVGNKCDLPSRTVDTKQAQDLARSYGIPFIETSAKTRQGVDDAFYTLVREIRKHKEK
Chain of KRAS Q61H (P62937 whole entry): as the sequence (P62937 whole entry) above
Chain of KRAS G12V (P01116 1-169 isoform P01116-2 G12V limits assumed): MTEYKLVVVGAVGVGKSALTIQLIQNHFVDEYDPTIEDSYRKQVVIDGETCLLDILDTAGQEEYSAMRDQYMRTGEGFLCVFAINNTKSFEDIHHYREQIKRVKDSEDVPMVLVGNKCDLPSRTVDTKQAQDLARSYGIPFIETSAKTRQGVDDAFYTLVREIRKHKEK
Chain of KRAS G12V (P62937 whole entry): as the sequence (P62937 whole entry) above
Chain of NRAS G12C (P01111 whole entry G12C): as the sequence (P01111 whole entry Q61K) above, with G12C, K61Q counted along it
Chain of NRAS G12C (P62937 whole entry): as the sequence (P62937 whole entry) above
Chain of KRAS G13D (P01116 1-169 isoform P01116-2 G13D limits assumed): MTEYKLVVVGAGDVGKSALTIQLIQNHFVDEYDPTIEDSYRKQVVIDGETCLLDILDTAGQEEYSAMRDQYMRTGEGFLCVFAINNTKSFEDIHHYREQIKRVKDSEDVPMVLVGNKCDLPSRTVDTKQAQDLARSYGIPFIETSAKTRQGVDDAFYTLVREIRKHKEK
Chain of KRAS G13D (P62937 whole entry): as the sequence (P62937 whole entry) above
Chain of KRAS G12S (P01116 1-169 isoform P01116-2 G12S limits assumed): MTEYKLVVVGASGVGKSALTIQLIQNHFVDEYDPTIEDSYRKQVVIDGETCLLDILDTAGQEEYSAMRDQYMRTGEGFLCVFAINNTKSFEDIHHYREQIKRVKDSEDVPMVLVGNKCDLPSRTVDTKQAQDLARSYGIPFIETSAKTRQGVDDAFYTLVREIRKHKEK
Chain of KRAS G12S (P62937 whole entry): as the sequence (P62937 whole entry) above
Chain of KRAS G13C (P01116 1-169 isoform P01116-2 G13C): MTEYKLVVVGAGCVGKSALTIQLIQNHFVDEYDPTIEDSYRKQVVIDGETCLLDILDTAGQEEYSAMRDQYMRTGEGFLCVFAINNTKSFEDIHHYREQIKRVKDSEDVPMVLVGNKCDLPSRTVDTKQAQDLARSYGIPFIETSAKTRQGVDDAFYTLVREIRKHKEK
Chain of KRAS G13C (P62937 whole entry): as the sequence (P62937 whole entry) above
Chain of NRAS WT (P01111 whole entry): as the sequence (P01111 whole entry Q61K) above, with K61Q counted along it
Chain of NRAS WT (P62937 whole entry): as the sequence (P62937 whole entry) above
Chain of KRAS G12C (P01116 1-169 isoform P01116-2 G12C): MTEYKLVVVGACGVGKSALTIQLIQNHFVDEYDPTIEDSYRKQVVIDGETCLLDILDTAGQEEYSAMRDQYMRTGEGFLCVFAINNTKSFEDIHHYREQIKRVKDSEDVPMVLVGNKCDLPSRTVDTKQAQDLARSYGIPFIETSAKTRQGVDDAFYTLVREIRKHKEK
Chain of KRAS G12C (P62937 whole entry): as the sequence (P62937 whole entry) above
Chain of KRAS WT (P01116 1-169 isoform P01116-2 limits assumed): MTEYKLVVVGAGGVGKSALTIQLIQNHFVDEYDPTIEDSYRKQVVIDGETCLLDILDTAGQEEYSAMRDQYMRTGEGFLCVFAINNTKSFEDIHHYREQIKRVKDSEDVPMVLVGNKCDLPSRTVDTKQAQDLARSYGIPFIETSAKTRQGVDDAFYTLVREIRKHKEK
Chain of KRAS WT (P62937 whole entry): as the sequence (P62937 whole entry) above

SMILES | IC50 [1] [µM] | IC50 [10] [nM] | IC50 [11] [nM] | IC50 [12] [nM] | IC50 [13] [nM] | IC50 [14] [nM] | IC50 [2, 15] [nM] | IC50 [3, 16] [nM] | IC50 [4, 17] [nM] | IC50 [5, 18] [nM] | IC50 [6, 19] [nM] | IC50 [7, 20] [nM] | IC50 [8, 21] [nM] | IC50 [9, 22] [nM] | further results
CCn1c(-c2cccnc2[C@H](C)OC)c2c3cc(ccc31)-c1csc(n1)C[C@H](NC(=O)[C@H](C(C)C)N(C)C(=O)N1CC(N)(C#N)C1)C(=O)N1CCC[C@H](N1)C(=O)OCC(C)(C)C2 [Example A456] | 1 to 10 | 100 to 1000 | 100 to 1000 | 100 to 1000 | 100 to 1000 |  |  |  |  |  |  |  |  |  | IC50 ([2]; KRAS G12C FRET data, IC50): 100 to 1000 nM; IC50 ([3]; KRAS G12V FRET data IC50, KRAS G12V): 100 to 1000 nM; IC50 ([4]; KRAS G12S FRET data, IC50): 100 to 1000 nM; IC50 ([5]; KRAS G12D FRET data, IC50): 1000 to 10000 nM; IC50 ([6]; KRAS G13D FRET data IC50, KRAS G13D): 1000 to 10000 nM; IC50 ([7]; KRAS WT FRET data IC50, KRAS WT): 100 to 1000 nM; IC50 ([8]; KRAS G13C FRET data, IC50): 100 to 1000 nM; IC50 ([9]; NRAS G12C FRET data IC50, NRAS G12C): 100 to 1000 nM
CCn1c(-c2cnccc2COC)c2c3cc(ccc31)-c1cc(O)cc(c1)C[C@H](NC(=O)[C@H](C(C)C)N(C)C(=O)c1ncco1)C(=O)N1CCC[C@H](N1)C(=O)OCC(C)(C)C2 [Example A38] |  | 100 to 1000 | 100 to 1000 | 100 to 1000 | 10 to 100 | 1000 to 10000 | 100 to 1000 | 100 to 1000 | 100 to 1000 | 1000 to 10000 | 100 to 1000 | 100 to 1000 | 1000 to 10000 | 100 to 1000 | 
CCn1c(-c2cccnc2[C@H](C)OC)c2c3cc(ccc31)-c1csc(n1)C[C@H](NC(=O)c1ccccn1)C(=O)N1CCC[C@H](N1)C(=O)OCC(C)(C)C2 [Example A366] | 1 to 10 | 100 to 1000 | 100 to 1000 | 1000 to 10000 | 100 to 1000 |  | 100 to 1000 | 100 to 1000 | 1000 to 10000 | 1000 to 10000 | 1000 to 10000 | 1000 to 10000 | 100 to 1000 | 100 to 1000 | 
CCn1c(-c2cc(N3CCN(C)CC3)cnc2[C@H](C)OC)c2c3cc(ccc31)-c1csc(n1)C[C@H](NC(C)=O)C(=O)N1CCC[C@H](N1)C(=O)OCC(C)(C)C2 [Example A321] |  | 100 to 1000 | 100 to 1000 | 100 to 1000 | 100 to 1000 | 100 to 1000 | 10 to 100 | 100 to 1000 | 100 to 1000 | 100 to 1000 | 100 to 1000 | 100 to 1000 | 100 to 1000 | 10 to 100 | 
CCn1c(-c2cccnc2[C@H](C)OC)c2c3cc(ccc31)-c1csc(n1)C[C@H](NC(=O)[C@H](C(C)C)N1CCC3(CCN(S(C)(=O)=O)C3)C1=O)C(=O)N1CCC[C@H](N1)C(=O)OCC(C)(C)C2 (mixture of isomers) [Example A220] | 1 to 10 | 1000 to 10000 | 1000 to 10000 | 1000 to 10000 | 1000 to 10000 |  |  |  |  |  |  |  |  |  | 
CCn1c(-c2cccnc2[C@H](C)OC)c2c3cc(ccc31)-c1csc(n1)C[C@H](NC(=O)[C@@H]1CCCO1)C(=O)N1CCC[C@H](N1)C(=O)OCC(C)(C)C2 [Example A331] | 1 to 10 | 100 to 1000 | 100 to 1000 | 1000 to 10000 | 100 to 1000 |  | 100 to 1000 | 100 to 1000 | 100 to 1000 | 1000 to 10000 | 1000 to 10000 | 100 to 1000 | 100 to 1000 | 100 to 1000 | 
